Results: patent US9132140B2, “Boronic acid derivatives and therapeutic uses thereof” (Rempex Pharmaceuticals, Inc., priority 2013, dated 2015)

Columns and labels:
ECLM1019 (VIM, KPC) = assay type: cell-based, Enterobacter cloacae
Description: (§1) Several strains simultaneously expressing both class A and class B carbapenemases, which were constructed using conjugation, were also included in the panel.

ECLM1014 (NDM, KPC) = assay type: cell-based, Enterobacter cloacae
Description: as §1

ECL1055 (KPC) = assay type: cell-based, Enterobacter cloacae
Description: as §1

ECLM1017 (VIM, KPC) = assay type: cell-based, Enterobacter cloacae
Description: as §1

KP1054 (VIM-1, SHV-11) = assay type: cell-based, Klebsiella pneumoniae
Description: as §1

KPM1097 (NDM, KPC) = assay type: cell-based, Klebsiella pneumoniae
Description: as §1

KPM1122 (NDM, VIM) = assay type: cell-based, Klebsiella pneumoniae
Description: as §1

KP1065 (VIM-1, SHV-11) = assay type: cell-based, Klebsiella pneumoniae
Description: as §1

KP1061 (KPC TEM SHV) = assay type: cell-based, Klebsiella pneumoniae
Description: as §1

KPM1107 (NDM, KPC) = assay type: cell-based, Klebsiella pneumoniae
Description: as §1

KPM1123 (KPC-2 TEM SHV) = assay type: cell-based, Klebsiella pneumoniae
Description: as §1

KPM1099 (NDM, KPC) = assay type: cell-based, Klebsiella pneumoniae
Description: as §1

KP1014 (Vim-1, TEM, SHV) = assay type: cell-based, Klebsiella pneumoniae
Description: as §1

[1] = tested on: strains of Enterobacteriaceae producing various carbapenemases; assay: Meropenem/imipenem potentiation MIC, whole panel; assay type: cell-based; settings: strains expressing various carbapenemases, incl. class A and class B simultaneously; compound fixed 4 vg/ml
Description: Several strains simultaneously expressing both class A and class B carbapenemases, which were constructed using conjugation, were also included in the panel. […]

NDM-1 = NDM-1 (Klebsiella pneumoniae, UniProt C7C422); assay: biochemical; settings: substrate imipenem 100 μM
CTX-M-14 = CTX-M-14 (Escherichia coli, UniProt Q9L5C7); assay: Inhibition of purified beta-lactamase, nitrocefin cleavage; assay type: biochemical
Procedure, shortened: (§2)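 Readout: nitrocefin hydrolysis, A490 recorded every 10 sec over 10 min. Enzyme and inhibitor (varied concentrations) preincubated 10 min, RT, in reaction buffer before substrate addition.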

OXA-48 = OXA-48 (Klebsiella pneumoniae, UniProt Q6XEC0); assay: as above; assay type: biochemical; settings: read-out: Ki (OXA-48, NCF)
Procedure, shortened: as §2

SHV-12 = SHV-12 (Klebsiella pneumoniae, UniProt P0AD64, E235K/G234S/L31Q); assay: as above; assay type: biochemical; settings: read-out: Ki (SHV-12, NCF)
Procedure, shortened: as §2

Sequence of SHV-12 (P0AD64 22-286 L31Q/G234S/E235K): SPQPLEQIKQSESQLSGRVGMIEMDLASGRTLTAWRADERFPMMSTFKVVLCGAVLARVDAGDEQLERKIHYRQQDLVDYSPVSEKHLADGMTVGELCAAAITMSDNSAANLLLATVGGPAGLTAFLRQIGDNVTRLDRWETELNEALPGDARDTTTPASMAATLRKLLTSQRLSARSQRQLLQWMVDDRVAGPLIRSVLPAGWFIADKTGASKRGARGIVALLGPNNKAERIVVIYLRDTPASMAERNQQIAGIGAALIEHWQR
Sequence of OXA-48 (Q6XEC0 23-265, looked up): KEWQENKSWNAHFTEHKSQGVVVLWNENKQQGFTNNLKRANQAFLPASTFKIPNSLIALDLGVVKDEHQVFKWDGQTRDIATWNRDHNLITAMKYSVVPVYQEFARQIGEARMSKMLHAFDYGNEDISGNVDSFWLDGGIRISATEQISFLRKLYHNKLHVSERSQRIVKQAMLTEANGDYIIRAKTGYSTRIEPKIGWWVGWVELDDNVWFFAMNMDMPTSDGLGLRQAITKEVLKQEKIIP
Sequence of CTX-M-14 (Q9L5C7 entry or part of it): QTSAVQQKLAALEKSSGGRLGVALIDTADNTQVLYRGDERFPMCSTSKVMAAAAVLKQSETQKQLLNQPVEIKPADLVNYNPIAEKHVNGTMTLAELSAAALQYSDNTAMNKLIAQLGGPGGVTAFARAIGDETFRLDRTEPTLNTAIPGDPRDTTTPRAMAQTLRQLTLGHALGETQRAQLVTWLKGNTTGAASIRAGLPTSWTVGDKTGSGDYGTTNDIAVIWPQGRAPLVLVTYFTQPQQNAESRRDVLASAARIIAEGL
Sequence of NDM-1 (C7C422 29-270, looked up, species assumed): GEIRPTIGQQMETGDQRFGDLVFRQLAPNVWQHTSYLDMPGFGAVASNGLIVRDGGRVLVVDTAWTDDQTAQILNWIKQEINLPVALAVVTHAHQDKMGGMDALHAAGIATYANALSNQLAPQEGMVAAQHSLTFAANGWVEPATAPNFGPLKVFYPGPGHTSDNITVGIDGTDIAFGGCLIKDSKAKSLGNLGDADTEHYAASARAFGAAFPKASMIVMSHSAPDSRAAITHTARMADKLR

With `Nn1cnnc1S[C@H]1Cc2cccc(C(=O)O)c2OB1O` [Compound 14, (R)-3-(4-amino-4H-1,2,4-triazol-3-ylthio)-2-hydroxy-3,4-dihydro-2H-benzo[e][1,2]oxaborinine-8-carboxylic acid] the “Meropenem + 14 MIC” value (ECLM1019 (VIM, KPC)) was “X (key: X: MIC of less than 1 μg/mL; Y: MIC of 1 μg/mL to 10 μg/mL; Z: MIC of greater than 10 μg/mL)”, the “Imipenem + 14 MIC” value (ECLM1014 (NDM, KPC)) was “X (key: X: MIC of less than 1 μg/mL; Y: MIC of 1 μg/mL to 10 μg/mL; Z: MIC of greater than 10 μg/mL)” and the “Meropenem + 14 MIC” value (ECLM1014 (NDM, KPC)) was “X (key: X: MIC of less than 1 μg/mL; Y: MIC of 1 μg/mL to 10 μg/mL; Z: MIC of greater than 10 μg/mL)”. The “Imipenem + 14 MIC” value (ECL1055 (KPC)) was “X (key: X: MIC of less than 1 μg/mL; Y: MIC of 1 μg/mL to 10 μg/mL; Z: MIC of greater than 10 μg/mL)”, the “Meropenem + 14 MIC” value (ECL1055 (KPC)) was “X (key: X: MIC of less than 1 μg/mL; Y: MIC of 1 μg/mL to 10 μg/mL; Z: MIC of greater than 10 μg/mL)” and the “Imipenem + 14 MIC” value (ECLM1017 (VIM, KPC)) was “X (key: X: MIC of less than 1 μg/mL; Y: MIC of 1 μg/mL to 10 μg/mL; Z: MIC of greater than 10 μg/mL)”. For the same compound, the “Meropenem + 14 MIC” value (ECLM1017 (VIM, KPC)) was “X (key: X: MIC of less than 1 μg/mL; Y: MIC of 1 μg/mL to 10 μg/mL; Z: MIC of greater than 10 μg/mL)”, the “Imipenem + 14 MIC” value (KP1054 (VIM-1, SHV-11)) was “X (key: X: MIC of less than 1 μg/mL; Y: MIC of 1 μg/mL to 10 μg/mL; Z: MIC of greater than 10 μg/mL)” and the “Meropenem + 14 MIC” value (KP1054 (VIM-1, SHV-11)) was “X (key: X: MIC of less than 1 μg/mL; Y: MIC of 1 μg/mL to 10 μg/mL; Z: MIC of greater than 10 μg/mL)”. The “Imipenem + 14 MIC” value (KPM1097 (NDM, KPC)) was “X (key: X: MIC of less than 1 μg/mL; Y: MIC of 1 μg/mL to 10 μg/mL; Z: MIC of greater than 10 μg/mL)”, the “Meropenem + 14 MIC” value (KPM1097 (NDM, KPC)) was “X (key: X: MIC of less than 1 μg/mL; Y: MIC of 1 μg/mL to 10 μg/mL; Z: MIC of greater than 10 μg/mL)” and the “Imipenem + 14 MIC” value (KPM1122 (NDM, VIM)) was “Y (key: X: MIC of less than 1 μg/mL; Y: MIC of 1 μg/mL to 10 μg/mL; Z: MIC of greater than 10 μg/mL)”. The “Meropenem + 14 MIC” value (KPM1122 (NDM, VIM)) was “Y (key: X: MIC of less than 1 μg/mL; Y: MIC of 1 μg/mL to 10 μg/mL; Z: MIC of greater than 10 μg/mL)”, the “Imipenem + 14 MIC” value (KP1065 (VIM-1, SHV-11)) was “X (key: X: MIC of less than 1 μg/mL; Y: MIC of 1 μg/mL to 10 μg/mL; Z: MIC of greater than 10 μg/mL)” and the “Meropenem + 14 MIC” value (KP1065 (VIM-1, SHV-11)) was “Z (key: X: MIC of less than 1 μg/mL; Y: MIC of 1 μg/mL to 10 μg/mL; Z: MIC of greater than 10 μg/mL)”. For the same compound, the “Imipenem + 14 MIC” value (KP1061 (KPC TEM SHV)) was “X (key: X: MIC of less than 1 μg/mL; Y: MIC of 1 μg/mL to 10 μg/mL; Z: MIC of greater than 10 μg/mL)”, the “Meropenem + 14 MIC” value (KP1061 (KPC TEM SHV)) was “X (key: X: MIC of less than 1 μg/mL; Y: MIC of 1 μg/mL to 10 μg/mL; Z: MIC of greater than 10 μg/mL)” and the “Imipenem + 14 MIC” value (KPM1107 (NDM, KPC)) was “X (key: X: MIC of less than 1 μg/mL; Y: MIC of 1 μg/mL to 10 μg/mL; Z: MIC of greater than 10 μg/mL)”. The “Meropenem + 14 MIC” value (KPM1107 (NDM, KPC)) was “X (key: X: MIC of less than 1 μg/mL; Y: MIC of 1 μg/mL to 10 μg/mL; Z: MIC of greater than 10 μg/mL)”, the “Imipenem + 14 MIC” value (KPM1123 (KPC-2 TEM SHV)) was “X (key: X: MIC of less than 1 μg/mL; Y: MIC of 1 μg/mL to 10 μg/mL; Z: MIC of greater than 10 μg/mL)” and the “Meropenem + 14 MIC” value (KPM1123 (KPC-2 TEM SHV)) was “X (key: X: MIC of less than 1 μg/mL; Y: MIC of 1 μg/mL to 10 μg/mL; Z: MIC of greater than 10 μg/mL)”. The “Imipenem + 14 MIC” value (KPM1099 (NDM, KPC)) was “Y (key: X: MIC of less than 1 μg/mL; Y: MIC of 1 μg/mL to 10 μg/mL; Z: MIC of greater than 10 μg/mL)”, the “Meropenem + 14 MIC” value (KPM1099 (NDM, KPC)) was “Y (key: X: MIC of less than 1 μg/mL; Y: MIC of 1 μg/mL to 10 μg/mL; Z: MIC of greater than 10 μg/mL)” and the “Imipenem + 14 MIC” value (KP1014 (Vim-1, TEM, SHV)) was “X (key: X: MIC of less than 1 μg/mL; Y: MIC of 1 μg/mL to 10 μg/mL; Z: MIC of greater than 10 μg/mL)”. The “Meropenem + 14 MIC” value (KP1014 (Vim-1, TEM, SHV)) was “X (key: X: MIC of less than 1 μg/mL; Y: MIC of 1 μg/mL to 10 μg/mL; Z: MIC of greater than 10 μg/mL)”, the “carbapenem MIC in the presence of compound” value [1] was “significantly reduced” and the Ki (NDM-1) was 10 to 100 nM. For the same compound, the Ki (CTX-M-14) was < 100 nM, the Ki (OXA-48) was < 100 nM and the Ki (SHV-12) was < 100 nM.
